From US20030073850A1, “4-Imidazole derivatives of benzyl and restricted benzyl sulfonamides, sulfamides, ureas, carbamates, and amides and their use” (priority 1998, published 2003) come the findings set out here.

Broadly, the melting point is the temperature of the solid-liquid transition. What is called Ki is the equilibrium dissociation constant of an inhibitor or competing ligand from its target.

The target in data set [1] is T1, α1A (rat submaxillary gland) (Rattus norvegicus, UniProt P43140).
T1 construct: α1A (rat submaxillary gland); from tissue; host or cells: rat submaxillary gland
T1 sequence (P43140 1-466): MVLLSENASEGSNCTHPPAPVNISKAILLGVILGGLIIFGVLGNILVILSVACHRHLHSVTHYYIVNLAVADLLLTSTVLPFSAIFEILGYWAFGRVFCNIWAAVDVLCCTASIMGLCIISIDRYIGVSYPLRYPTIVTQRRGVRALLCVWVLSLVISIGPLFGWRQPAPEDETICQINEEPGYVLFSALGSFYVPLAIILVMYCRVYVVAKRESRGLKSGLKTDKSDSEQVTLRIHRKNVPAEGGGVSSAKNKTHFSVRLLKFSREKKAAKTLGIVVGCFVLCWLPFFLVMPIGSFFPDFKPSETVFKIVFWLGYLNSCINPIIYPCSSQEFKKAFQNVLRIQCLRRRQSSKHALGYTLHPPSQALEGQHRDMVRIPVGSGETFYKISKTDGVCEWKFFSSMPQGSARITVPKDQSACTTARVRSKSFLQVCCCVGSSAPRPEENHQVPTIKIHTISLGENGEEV
As to the kind of experiment: Radioligand binding, [3H]-prazosin, α1A. In outline: (§1)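 [3H]-prazosin radioligand displacement; α1A from rat submaxillary gland tissue, α1b hamster and α1d rat receptors each expressed in mouse fibroblasts.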

The next data set addresses T2, α1B (rat spleen) (Rattus norvegicus, UniProt P15823).
T2 construct: α1B (rat spleen) and α1D (rat aorta) receptors; from tissue; host or cells: rat spleen
T2 sequence (P15823 1-515): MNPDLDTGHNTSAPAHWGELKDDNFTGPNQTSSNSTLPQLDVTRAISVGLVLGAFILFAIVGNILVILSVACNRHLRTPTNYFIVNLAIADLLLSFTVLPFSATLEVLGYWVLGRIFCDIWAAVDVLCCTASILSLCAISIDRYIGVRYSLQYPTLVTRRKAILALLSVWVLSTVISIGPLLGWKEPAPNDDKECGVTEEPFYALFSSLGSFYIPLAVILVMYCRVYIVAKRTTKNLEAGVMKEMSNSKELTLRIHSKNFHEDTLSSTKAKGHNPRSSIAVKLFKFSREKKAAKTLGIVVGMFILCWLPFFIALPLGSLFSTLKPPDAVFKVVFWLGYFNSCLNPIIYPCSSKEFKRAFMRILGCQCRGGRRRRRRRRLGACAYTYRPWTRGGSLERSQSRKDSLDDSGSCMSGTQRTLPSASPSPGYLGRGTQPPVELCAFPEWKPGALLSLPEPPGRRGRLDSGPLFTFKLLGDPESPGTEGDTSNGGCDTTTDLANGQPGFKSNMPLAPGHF
In words: Agonist tissue response, contraction of rat spleen. The class given is biochemical. The note with it: read-out: Agonist Tissue Response (pD2) α1B (rat spleen) (converted).

Another data set has as its system anesthetized dogs. In words: Mean arterial pressure (MAP) in anesthetized dogs. Particulars: iv dose causing a maximum increase in MAP of 20 mm Hg, anesthetized female Beagle dogs. The class given is in vivo, dog.
Data set [2] addresses T3, α1b (hamster receptor expressed in mouse fibroblasts) (Mesocricetus auratus, UniProt P18841).
T3 construct: expressed in transfected cells; host or cells: mouse fibroblasts
T3 sequence (P18841 1-515): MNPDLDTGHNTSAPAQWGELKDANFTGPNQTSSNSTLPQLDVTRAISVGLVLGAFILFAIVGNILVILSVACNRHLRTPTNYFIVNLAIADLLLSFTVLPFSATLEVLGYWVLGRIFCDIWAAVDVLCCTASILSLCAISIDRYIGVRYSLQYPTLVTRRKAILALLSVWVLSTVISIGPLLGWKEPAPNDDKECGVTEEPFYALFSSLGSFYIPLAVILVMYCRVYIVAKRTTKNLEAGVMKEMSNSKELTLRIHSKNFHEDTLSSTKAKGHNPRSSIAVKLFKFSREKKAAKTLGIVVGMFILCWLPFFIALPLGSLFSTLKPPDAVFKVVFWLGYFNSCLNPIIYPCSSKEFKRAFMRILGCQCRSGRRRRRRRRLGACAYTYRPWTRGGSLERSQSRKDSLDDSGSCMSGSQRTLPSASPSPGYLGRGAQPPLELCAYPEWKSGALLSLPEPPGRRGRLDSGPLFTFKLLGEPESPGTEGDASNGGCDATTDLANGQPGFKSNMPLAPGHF
In words: Radioligand binding, [3H]-prazosin, α1b. Particulars: hamster receptor expressed in mouse fibroblasts, [3H]-prazosin; read-out: Radioligand Binding Ki α1b (Hamster). The method in brief:
as §1

The structures appear in SMILES notation.

Turning to `CCS(=O)(=O)Nc1cccc2c1OCCC2c1c[nH]cn1` (single isomer, unassigned; (+)) [Example 95, (+) N-[4-(1H-imidazol-4-yl)-3,4-dihydro-2H-chromen-8-yl]ethanesulfonamide], the melting point lay in the range of 223 to 226 °C. The same compound displayed a Ki in data set [1] of 0.183 µM. For the same compound, the EC50 on α1B (rat spleen) is 28.2 µM. For the same compound, the “Mean MAP ED20” value with anesthetized dogs is reported as 109.1 nmol/kg. Moreover, in data set [2], the inhibition constant Ki turned out to be 10 µM.
